# Data as given in BindingDB's records for doi:10.1016/j.ejmech.2019.02.074 (University of Hull, 2019).
# Several values for one entry are separate records, joined by “and”; a condition that tells them apart may be missing. Equal values may be shown once.
# Molecular target: Transient receptor potential cation channel subfamily A member 1 (Homo sapiens, UniProt O75762)
# Assay: Antagonist activity at human TRPA1 expressed in HEK293 cells assessed as inhibition of CA-induced increase in calcium influx incubated for 10 mins prior to CA addition by Fluo-4-AM dye based fluorescence assayy
# Chain of Transient receptor potential cation channel subfamily A member 1 (O75762 whole entry): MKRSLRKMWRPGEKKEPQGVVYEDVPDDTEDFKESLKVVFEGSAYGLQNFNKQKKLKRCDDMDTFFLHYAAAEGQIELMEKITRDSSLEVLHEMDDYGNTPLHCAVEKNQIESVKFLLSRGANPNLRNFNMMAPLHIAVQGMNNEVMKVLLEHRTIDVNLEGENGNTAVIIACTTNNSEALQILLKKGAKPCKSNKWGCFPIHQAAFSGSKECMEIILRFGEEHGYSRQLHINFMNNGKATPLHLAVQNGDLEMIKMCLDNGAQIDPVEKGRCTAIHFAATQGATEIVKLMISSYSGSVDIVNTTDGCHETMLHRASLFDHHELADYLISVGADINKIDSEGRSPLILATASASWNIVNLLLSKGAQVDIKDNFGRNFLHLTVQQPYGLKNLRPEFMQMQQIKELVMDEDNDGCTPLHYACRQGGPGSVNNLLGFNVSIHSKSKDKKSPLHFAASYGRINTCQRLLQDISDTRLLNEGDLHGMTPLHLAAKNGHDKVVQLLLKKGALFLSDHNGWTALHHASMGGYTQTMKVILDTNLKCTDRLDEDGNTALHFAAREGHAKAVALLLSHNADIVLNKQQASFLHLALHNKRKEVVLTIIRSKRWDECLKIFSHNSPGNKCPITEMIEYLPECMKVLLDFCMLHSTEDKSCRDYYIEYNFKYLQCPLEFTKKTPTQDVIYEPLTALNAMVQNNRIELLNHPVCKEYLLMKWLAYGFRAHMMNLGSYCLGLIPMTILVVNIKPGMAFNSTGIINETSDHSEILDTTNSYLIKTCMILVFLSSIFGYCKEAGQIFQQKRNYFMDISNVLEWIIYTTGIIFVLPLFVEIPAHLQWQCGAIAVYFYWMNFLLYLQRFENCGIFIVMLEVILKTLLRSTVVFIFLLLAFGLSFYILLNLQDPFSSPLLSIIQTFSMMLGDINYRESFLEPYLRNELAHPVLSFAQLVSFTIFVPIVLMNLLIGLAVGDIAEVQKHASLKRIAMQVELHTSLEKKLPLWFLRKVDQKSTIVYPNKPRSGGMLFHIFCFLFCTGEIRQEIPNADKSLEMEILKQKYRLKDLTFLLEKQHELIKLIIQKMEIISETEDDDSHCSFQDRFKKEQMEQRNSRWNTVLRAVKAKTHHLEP
row,SMILES,IC50
1,O=C(/C=C/c1ccc(Br)cc1)Nc1ccccc1C(=O)O,10 µM
2,CC(=Cc1ccc(Cl)cc1)C(C)N=O (configuration not stated) [4-(4-chlorophenyl)-3-methylbut-3-en-2-one oxime],4.47 µM and 4.46 µM
